In assay [1] the test system is Beet Armyworm (Spodoptera exigua, LAPHEG). The experiment in a line: Bioassay on Beet Armyworm (BAW), 128-well diet tray assay. It counts as in vivo. The method, boiled down: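 Second instar larvae were exposed to diet treated at 50 μg/cm^2 for five to seven days at 25° C.; mortality was averaged over eight wells.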
Assay [2] deals with Cabbage Looper (Trichoplusia ni, TRIPNI). Put plainly: Bioassay on Cabbage Looper (CL), 128-well diet tray assay. The assay is classed as in vivo. The note with it: Trichoplusia ni. The method, boiled down:
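Second-instar larvae, one to five per well, placed on artificial diet treated with 50 μg/cm^2 test molecule in 90:10 acetone-water, dried before infestation. Held 5–7 days at 25° C, 14:10 light-dark; percent mortality averaged over eight wells.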

Where [3] appears, read: Beet Armyworm, 128-well diet tray assay, read-out: BAW rating.
Setting [4] is: Cabbage Looper, 128-well diet tray assay, read-out: CL rating.
Setting [5] is: Species BAW (Beet Armyworm), read-out: BAW (Biological Results, rating).
Where [6] appears, read: Species CL (Cabbage Looper), read-out: CL (Biological Results, rating).

Like-named read-outs stand apart in the source and are kept apart here.

For `CC(C)(C)OC(=O)Nc1cccc(NC(=O)c2cc(NC(=O)[C@H]3[C@H](c4cc(Cl)cc(Cl)c4)C3(Cl)Cl)ccc2Cl)n1` (relative stereo) [F505, tert-Butyl (6-(2-chloro-5-(trans-2,2-dichloro-3-(3,5-dichlorophenyl)cyclopropane-1-carboxamido)benzamido)pyridin-2-yl)carbamate], the pest or weed control at 50 µg/cm2 in assay [1] (setting [3]) and in assay [2] (setting [4]) was 50 to 100% in each case.
In the case of `O=C(Nc1c(F)cccc1F)c1cc(NC(=O)[C@H]2[C@H](c3ccccc3)C2(Cl)Cl)ccc1Cl` (relative stereo) [F111, trans-2-Chloro-5-(2,2-dichloro-3-phenylcyclopropane-1-carboxamido)-N-(2,6-difluorophenyl)benzamide], the pest or weed control at 50 µg/cm2 in assay [1] (setting [5]) and in assay [2] (setting [6]) was 50 to 100% throughout.
As to `Cc1cc([N+](=O)[O-])ccc1NC(=O)c1cc(NC(=O)[C@H]2[C@H](c3cc(Cl)cc(Cl)c3)C2(Cl)Cl)ccc1Cl` (relative stereo) [PF75, trans-2-Chloro-5-(2,2-dichloro-3-(3,5-dichlorophenyl)cyclopropane-1-carboxamido)-N-(2-methyl-4-nitrophenyl)benzamide], the pest or weed control at 50 µg/cm2 in assay [1] (setting [3]) and in assay [2] (setting [4]) was 50 to 100% throughout.
Turning to `O=C(Nc1cc[n+]([O-])cc1)c1cc(NC(=O)[C@H]2[C@H](c3cc(Cl)cc(Cl)c3)C2(Cl)Cl)ccc1Cl` (relative stereo) [F140, trans-4-(2-Chloro-5-(2,2-dichloro-3-(3,5-dichlorophenyl)cyclopropane-1-carboxamido)benzamido)pyridine 1-oxide], the pest or weed control at 50 µg/cm2 in assay [1] (setting [5]) and in assay [2] (setting [6]) was 50 to 100% throughout.
Turning to `O=C(Nc1ccc(F)cc1)c1cc(NC(=O)[C@H]2[C@H](c3ccc(Cl)c(F)c3)C2(Cl)Cl)ccc1Cl` (relative stereo) [PF34, trans-2-Chloro-5-(2,2-dichloro-3-(4-chloro-3-fluorophenyl)cyclopropane-1-carboxamido)-N-(4-fluorophenyl)benzamide], the pest or weed control at 50 µg/cm2 in assay [1] (setting [3]) and in assay [2] (setting [4]) was 50 to 100% each time.
Turning to `O=C(Nc1c(F)cccc1F)c1cc(NC(=O)[C@H]2[C@H](c3cc(Cl)cc(C(F)(F)F)c3)C2(Cl)Cl)ccc1Cl` (relative stereo) [F89, trans-2-Chloro-5-(2,2-dichloro-3-(3-chloro-5-(trifluoromethyl)phenyl)cyclopropane-1-carboxamido)-N-(2,6-difluorophenyl)benzamide], the pest or weed control at 50 µg/cm2 in assay [1] (setting [5]) and in assay [2] (setting [6]) was 50 to 100% in each case.
On to `O=C(Nc1ccc(F)cc1)c1cc(NC(=O)[C@H]2[C@H](c3cc(Cl)c(Br)c(Cl)c3)C2(Cl)Cl)ccc1Cl` (relative stereo) [F72, trans-5-(3-(4-Bromo-3,5-dichlorophenyl)-2,2-dichlorocyclopropane-1-carboxamido)-2-chloro-N-(4-fluorophenyl)benzamide], for which the pest or weed control at 50 µg/cm2 in assay [1] (setting [5]) and in assay [2] (setting [6]) was 50 to 100% in each case.
In the case of `CC(C)(C)OC(=O)N(C(=O)OC(C)(C)C)c1c(F)ccc(NC(=O)c2cc(NC(=O)C3C(c4ccc(Cl)c(Br)c4)C3(Cl)Cl)ccc2Cl)c1F` (stereo not drawn) [F513, tert-Butyl-N-((tert-butoxy)carbonyl)-N-(3-(5-(3-(3-bromo-4-chlorophenyl)-2,2-dichlorocyclopropane-1-carboxamido)-2-chlorobenzamido)-2,6-difluorophenyl)carbamate], the pest or weed control at 50 µg/cm2 in assay [1] (setting [3]) and in assay [2] (setting [4]) was 50 to 100% each time.
Take `Cc1cc(C(F)(C(F)(F)F)C(F)(F)F)cc(C)c1NC(=O)c1cc(NC(=O)[C@H]2[C@H](c3cc(Cl)cc(Cl)c3)C2(Cl)Cl)ccc1Cl` (relative stereo) [PF60, trans-2-Chloro-5-(2,2-dichloro-3-(3,5-dichlorophenyl)cyclopropane-1-carboxamido)-N-(2,6-dimethyl-4-(perfluoropropan-2-yl)phenyl)benzamide]: the pest or weed control at 50 µg/cm2 in assay [1] (setting [3]) and in assay [2] (setting [4]) was 50 to 100% in each case.
`O=C(Nc1c(F)cccc1F)c1cc(NC(=O)[C@H]2[C@H](c3cc(Br)cc(Br)c3)C2(Cl)Cl)ccc1Cl` (relative stereo) [F92, trans-2-Chloro-5-(2,2-dichloro-3-(3,5-dibromophenyl)cyclopropane-1-carboxamido)-N-(2,6-difluorophenyl)benzamide]: the pest or weed control at 50 µg/cm2 in assay [1] (setting [5]) and in assay [2] (setting [6]) was 50 to 100% throughout.
`O=C(Nc1cccc(Cl)c1)c1cc(NC(=O)[C@H]2[C@H](c3cc(Cl)cc(Cl)c3)C2(Cl)Cl)ccc1Cl` (relative stereo) [F43, trans-2-Chloro-N-(3-chlorophenyl)-5-(2,2-dichloro-3-(3,5-dichlorophenyl)cyclopropane-1-carboxamido)benzamide]: the pest or weed control at 50 µg/cm2 in assay [1] (setting [5]) and in assay [2] (setting [6]) was 50 to 100% each time.
As for `O=C(Nc1c(F)cccc1F)c1cc(NC(=O)C2C(c3cc(Cl)cc(Cl)c3)C2(Cl)Br)ccc1Cl` (stereo not drawn) [F168, 5-(trans)-2-Bromo-2-chloro-3-(3,5-dichlorophenyl)cyclopropane-1-carboxamido)-2-chloro-N-(2,6-difluorophenyl)benzamide], the pest or weed control at 50 µg/cm2 in assay [1] (setting [5]) and in assay [2] (setting [6]) was 50 to 100% in each case.
Turning to `CC(C)(C)OC(=O)N(C(=O)OC(C)(C)C)c1c(F)ccc(NC(=O)c2cc(NC(=O)[C@H]3[C@H](c4ccc(F)c(Cl)c4)C3(Cl)Cl)ccc2Cl)c1F` [F503, tert-Butyl-N-((tert-butoxy)carbonyl)-N-(3-(2-chloro-5-((1R,3R)-2,2-dichloro-3-(3-chloro-4-fluorophenyl)cyclopropane-1-carboxamido)benzamido)-2,6-difluorophenyl)carbamate], the pest or weed control at 50 µg/cm2 in assay [1] (setting [3]) and in assay [2] (setting [4]) was 50 to 100% throughout.
As for `O=C(Nc1c(F)cccc1F)c1cc(NC(=O)[C@H]2[C@H](c3cc(C(F)(F)F)cc(C(F)(F)F)c3)C2(Cl)Cl)ccc1Cl` (relative stereo) [F86, trans-5-(3-(3,5-Bis(trifluoromethyl)phenyl)-2,2-dichlorocyclopropane-1-carboxamido)-2-chloro-N-(2,6-difluorophenyl)benzamide], the pest or weed control at 50 µg/cm2 in assay [1] (setting [5]) and in assay [2] (setting [6]) was 50 to 100% in each case.
For the molecule `CN(C(=O)c1cc(NC(=O)[C@H]2[C@H](c3cc(F)cc(Cl)c3)C2(Cl)Cl)ccc1Cl)c1ccc(F)cc1` (relative stereo) [PF2, trans-2-Chloro-5-(2,2-dichloro-3-(3-chloro-5-fluorophenyl)cyclopropane-1-carboxamido)-N-(4-fluorophenyl)-N-methylbenzamide], the pest or weed control at 50 µg/cm2 in assay [1] (setting [3]) and in assay [2] (setting [4]) was 50 to 100% in each case.
For the molecule `O=C(Nc1cc(F)cc([N+](=O)[O-])c1)c1cc(NC(=O)[C@H]2[C@H](c3ccc(Cl)c(Cl)c3)C2(Cl)Cl)ccc1Cl` [F416, 2-Chloro-5-((1R,3R)-2,2-dichloro-3-(3,4-dichlorophenyl)cyclopropane-1-carboxamido)-N-(3-fluoro-5-nitrophenyl)benzamide], the pest or weed control at 50 µg/cm2 in assay [1] (setting [3]) and in assay [2] (setting [4]) was 50 to 100% throughout.
On to `O=C(Nc1ccc(NC(=O)C2(C(F)(F)F)CC2)cc1)c1cc(NC(=O)[C@H]2[C@H](c3cc(Cl)cc(Cl)c3)C2(Cl)Cl)ccc1Cl` (relative stereo) [PF162, trans-2-Chloro-5-(2,2-dichloro-3-(3,5-dichlorophenyl)cyclopropane-1-carboxamido)-N-(4-(1-(trifluoromethyl)cyclopropane-1-carboxamido)phenyl)benzamide], for which the pest or weed control at 50 µg/cm2 in assay [1] (setting [3]) and in assay [2] (setting [4]) was 50 to 100% throughout.
In the case of `CN(C(=O)c1cc(NC(=O)[C@H]2[C@H](c3cc(Cl)c(Cl)c(Cl)c3)C2(Cl)Cl)ccc1F)c1ccc(F)cc1` (relative stereo) [F60, trans-5-(2,2-dichloro-3-(3,4,5-trichlorophenyl)cyclopropane-1-carboxamido)-2-fluoro-N-(4-fluorophenyl)-N-methylbenzamide], the pest or weed control at 50 µg/cm2 in assay [1] (setting [5]) and in assay [2] (setting [6]) was 50 to 100% in each case.
Consider `Cc1ccc(C(=O)Nc2ccc(F)cc2)cc1NC(=O)[C@H]1[C@H](c2cc(Cl)cc(Cl)c2)C1(Cl)Cl` (relative stereo) [F134, trans-3-(2,2-Dichloro-3-(3,5-dichlorophenyl)cyclopropane-1-carboxamido)-N-(4-fluorophenyl)-4-methylbenzamide], for which the pest or weed control at 50 µg/cm2 in assay [1] (setting [5]) and in assay [2] (setting [6]) was 50 to 100% in each case.
As to `CC(C)(C)OC(=O)N(C(=O)OC(C)(C)C)c1c(F)ccc(NC(=O)c2cc(NC(=O)[C@H]3[C@H](c4ccc(Cl)c(Cl)c4)C3(Cl)Cl)ccc2Cl)c1F` [F500, tert-Butyl-N-((tert-butoxy)carbonyl)-N-(3-(2-chloro-5-((1R,3R)-2,2-dichloro-3-(3,4-dichlorophenyl)cyclopropane-1-carboxamido)benzamido)-2,6-difluorophenyl)carbamate], the results for the pest or weed control at 50 µg/cm2 in assay [1] (setting [3]) and in assay [2] (setting [4]) were 50 to 100% and 0 to 50%, respectively.
The corresponding values for `O=C(Nc1ccc2[nH]c(C(F)(F)F)cc2c1)c1cc(NC(=O)[C@H]2[C@H](c3cc(Cl)cc(Cl)c3)C2(Cl)Cl)ccc1Cl` (relative stereo) [F465, 2-Chloro-5-(trans)-(2,2-dichloro-3-(3,5-dichlorophenyl)cyclopropane-1-carboxamido)-N-(2-(trifluoromethyl)-1H-indol-5-yl)benzamide] are 50 to 100% and 50 to 100%.

Source of the values: US10219516B2, “Molecules having pesticidal utility, and intermediates, compositions, and processes, related thereto” (priority 2015, dated 2019).
